# Values joined by “and” are separate entries in the source; they are usually repeats but may differ in a detail not shown here. Identical values can stand only once.
# Experiment: In vitro phase I metabolic stability in male SD rat hepatic microsomes
# Assay type: in vitro ADME
# Conditions: for Peak area ratio (test compound/testosterone-D3 (internal standard)), mean value: mean of triplicate; for Peak area ratio (test compound/testosterone-D3 (internal standard)): single replicates -1, -2, -3
# Description: Phase I metabolic stability kit (purchased from HUIZHI HEYUAN BIOTECHNOLOGY (BEIJING) CO., LTD), with the following components of the product:
# Positive substrate testosterone solution (10 mM): diluted with acetonitrile to prepare a 200 μM solution for later use; stop solution & internal standard (testosterone-D3): dissolved with acetonitrile to prepare a 5 ng/mL solution for later use.
# • 1) all components of the kit were thawed in an ice bath and placed on ice for later use; • 2) an incubation system (taking 200 μL system as an example) was prepared:
# • 3) 160 μL of pre-incubation solution B was added into the centrifuge tube containing 40 μL of pre-incubation solution A, uniform mixing was performed by pipetting three times, and the resulting mixture was immediately placed in a water bath at 37° C. for incubation and timing was started; • 4) at predetermined incubation time points (0, 5, 10, 15, 30, 45, 60 minutes), the incubation solution was quantitatively taken out, and 200 μL of stop solution (5 ng/mL testosterone-D3 in acetonitrile, pre-chilled at 4° C.) was added to terminate the reaction (stop solution volume: incubation system volume=1:1). Experimental samples were prepared in triplicate at each time point.
# To verify the validity of the experiment, a positive control group was established concurrently in the whole experiment to evaluate whether the incubation system functioned properly, with the preparation method as follows: the compound to be tested was replaced with the positive substrate testosterone (200 μM in acetonitrile) from the phase I metabolic stability kit, and the other components of the incubation system and experimental method were the same as those of the experimental group.
# The ratio of the chromatographic peak area of the compound to be tested to the chromatographic peak area of the testosterone-D3 (internal standard) was used as the calculated data. By taking the peak area ratio at time zero of the test compound as 100%, the remaining percentages were calculated by comparing the peak area ratio at each time point with the peak area ratio at time zero, and the natural logarithms of the remaining percentages of the substrate at each time point are then subjected to linear regression against the incubation times to obtain the slope k. Therefore, the in vitro metabolic half-life (T1/2) and intrinsic clearance (CLint) were calculated using the following formulas: […]
compound,measurement,setting,value
"C[C@]12CC[C@H]3[C@@H](CCC4=CC(=O)CC[C@@]43C)[C@@H]1CC[C@@H]2O [Positive control, testosterone]","Peak area ratio (test compound/testosterone-D3 (internal standard)), mean value",incubation time 0 min,20.01
same,Peak area ratio (test compound/testosterone-D3 (internal standard)),incubation time 0 min,20.12 and 19.58 and 20.33
same,"Peak area ratio (test compound/testosterone-D3 (internal standard)), mean value",incubation time 10 min,0.06
same,Peak area ratio (test compound/testosterone-D3 (internal standard)),incubation time 10 min,0.05 and 0.08 and 0.06
